Structures are written as SMILES. Substitutions are numbered along the chain they refer to.

The first assay addresses T1, human GPR119 (Homo sapiens, UniProt Q8TDV5).
T1 construct: expressed in transfected cells; host or cells: HEK293
T1 sequence (Q8TDV5 1-335): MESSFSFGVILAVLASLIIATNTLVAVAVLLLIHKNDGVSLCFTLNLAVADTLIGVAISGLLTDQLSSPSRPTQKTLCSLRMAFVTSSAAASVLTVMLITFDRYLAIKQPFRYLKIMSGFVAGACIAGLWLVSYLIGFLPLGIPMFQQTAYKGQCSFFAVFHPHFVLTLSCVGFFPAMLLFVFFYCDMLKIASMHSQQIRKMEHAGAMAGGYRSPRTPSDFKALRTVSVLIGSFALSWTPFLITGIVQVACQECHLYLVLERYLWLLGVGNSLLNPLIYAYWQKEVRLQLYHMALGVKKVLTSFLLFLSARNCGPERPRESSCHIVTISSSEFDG
Description: Measurement of GPR119 signaling using LANCE 384-well cAMP kit (LCMP assay). It is filed as cell-based. The conditions noted are these: HEK293 cells stably transfected with human GPR119. The gist of the method: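 HEK293 cells stably expressing human GPR119, in stimulation buffer at pH 7.4 with 100 μM phosphodiesterase inhibitors, exposed to a 10-point compound dilution (2.5% DMSO final) for 45 min. cAMP measured by LANCE TR-FRET at 665 nm against a cAMP standard curve, normalized between DMSO basal and an internal agonist maximum, with a 4-parameter fit.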
(In general: In TR-FRET formats the signal depends on donor and acceptor labels being close together.)
One may read the EC50 as the concentration at which the effect is half-maximal. Consider `COCc1noc(N2CCC([C@@H]3C[C@H]3CCOc3cc(F)c(CC(=O)N(C)C)c(F)c3)CC2)n1` [Example 78, 2-(2,6-difluoro-4-(2-((1S,2S)-2-(1-(3-(methoxymethyl)-1,2,4-oxadiazol-5-yl)piperidin-4-yl)cyclopropyl)ethoxy)phenyl)-N,N-dimethylacetamide], for which the EC50 stood at 6.7 nM.
Still for that read-out and setting: next, `COCc1cnc(N2CCC([C@H]3C[C@@H]3CCOc3ccc(S(C)(=O)=O)c(F)c3)CC2)nc1` [Example 33, 2-(4-((1R,2R)-2-(2-(3-fluoro-4-(methylsulfonyl)phenoxy)ethyl)cyclopropyl)piperidin-1-yl)-5-(methoxymethyl)pyrimidine]: 15 nM; `CC(C)c1noc(N2CCC([C@@H]3C[C@H]3CCOc3ccc(N4CCNC4=O)cc3F)CC2)n1` [Example 88, 1-(3-fluoro-4-(2-((1S,2S)-2-(1-(3-isopropyl-1,2,4-oxadiazol-5-yl)piperidin-4-yl)cyclopropyl)ethoxy)phenyl)imidazolidin-2-one]: 18 nM.
Same read-out and setting: for `CC1(OC(=O)N2CCC([C@@H]3C[C@H]3CCOc3ccc(-n4cnnn4)c(F)c3)CC2)CC1` [Example 105, 1-methylcyclopropyl 4-((1S,2S)-2-(2-(3-fluoro-4-(1H-tetrazol-1-yl)phenoxy)ethyl)cyclopropyl)piperidine-1-carboxylate] the value was 15 nM; for `CC1(OC(=O)N2CCC([C@@H]3C[C@H]3CCOc3ccc(CC(=O)N4CCC4)cc3F)CC2)CC1` [Example 108, 1-methylcyclopropyl 4-((1S,2S)-2-(2-(4-(2-(azetidin-1-yl)-2-oxoethyl)-2-fluorophenoxy)ethyl)cyclopropyl)piperidine-1-carboxylate], 24 nM; for `CCS(=O)(=O)c1ccc(OCC[C@H]2C[C@@H]2C2CCN(c3nc(C(C)C)no3)CC2)c(F)c1` [Example 92, 5-(4-((1R,2R)-2-(2-(4-(ethylsulfonyl)-2-fluorophenoxy)ethyl)cyclopropyl)piperidin-1-yl)-3-isopropyl-1,2,4-oxadiazole], 13 nM.
The same measure, in the same setting: for `CCc1cnc(N2CCC([C@H]3C[C@@H]3CCOc3ccc(S(C)(=O)=O)cc3F)CC2)nc1` [Example 28, 5-ethyl-2-(4-((1R,2R)-2-(2-(2-fluoro-4-(methylsulfonyl)phenoxy)ethyl)cyclopropyl)piperidin-1-yl)pyrimidine] the value was 8.8 nM; for `CCc1cnc(N2CCC([C@H]3C[C@@H]3CCOc3ccc(-n4cnnn4)cc3F)CC2)nc1` [Example 60, 5-ethyl-2-(4-((1R,2R)-2-(2-(2-fluoro-4-(1H-tetrazol-1-yl)phenoxy)ethyl)cyclopropyl)piperidin-1-yl)pyrimidine], 17 nM; for `CC1(OC(=O)N2CCC([C@@H]3C[C@H]3CCOc3cc(F)c(CC(=O)N4CCC4)c(F)c3)CC2)CC1` [Example 101, 1-methylcyclopropyl 4-((1S,2S)-2-(2-(4-(2-(azetidin-1-yl)-2-oxoethyl)-3,5-difluorophenoxy)ethyl)cyclopropyl)piperidine-1-carboxylate], 2 nM.
As to `CCc1cnc(N2CCC([C@H]3C[C@@H]3CCOc3cc(F)c(CC(=O)N4CCC4)c(F)c3)CC2)nc1` [Example 54, 1-(azetidin-1-yl)-2-(4-(2-((1R,2R)-2-(1-(5-ethylpyrimidin-2-yl)piperidin-4-yl)cyclopropyl)ethoxy)-2,6-difluorophenyl)ethanone], the concentration giving a half-maximal response (EC50) is 0.25 nM.
Same read-out and setting: for `CS(=O)(=O)c1ccc(OCC[C@@H]2C[C@H]2C2CCN(c3ncc(Cl)cn3)CC2)c(F)c1` [Example 29, 5-chloro-2-(4-((1S,2S)-2-(2-(2-fluoro-4-(methylsulfonyl)phenoxy)ethyl)cyclopropyl)piperidin-1-yl)pyrimidine] the value was 17 nM; for `CCc1cnc(N2CCC([C@@H]3C[C@H]3CCOc3ccc(-n4cnnn4)cc3F)CC2)nc1` [Example 40, 5-ethyl-2-(4-((1S,2S)-2-(2-(2-fluoro-4-(1H-tetrazol-1-yl)phenoxy)ethyl)cyclopropyl)piperidin-1-yl)pyrimidine], 5 nM.
The same measure, in the same setting: next, `CCc1cnc(N2CCC([C@@H]3C[C@H]3CCOc3ccc(S(C)(=O)=O)c(F)c3)CC2)nc1` [Example 31, 5-ethyl-2-(4-((1S,2S)-2-(2-(3-fluoro-4-(methylsulfonyl)phenoxy)ethyl)cyclopropyl)piperidin-1-yl)pyrimidine]: 16 nM; `Clc1cnc(N2CCC([C@H]3C[C@@H]3CCNc3ncc(-n4cnnn4)cn3)CC2)nc1` [Example 123, N-(2-((1R,2S)-2-(1-(5-chloropyrimidin-2-yl)piperidin-4-yl)cyclopropyl)ethyl)-5-(1H-tetrazol-1-yl)pyrimidin-2-amine]: 10 nM; `CC1(OC(=O)N2CCC([C@H]3C[C@@H]3COCc3ccc(CC(=O)N4CCC4)cc3F)CC2)CC1` [Example 23, 1-methylcyclopropyl 4-((1R,2S)-2-((4-(2-(azetidin-1-yl)-2-oxoethyl)-2-fluorobenzyloxy)methyl)cyclopropyl)piperidine-1-carboxylate]: 13 nM.
Still for that read-out and setting: for `COCc1cnc(N2CCC([C@H]3C[C@@H]3COCc3ccc(S(C)(=O)=O)cc3F)CC2)nc1` [Example 11, 2-(4-((1R,2S)-2-(((2-fluoro-4-(methylsulfonyl)benzyl)oxy)methyl)cyclopropyl)piperidin-1-yl)-5-(methoxymethyl)pyrimidine] the value was 7.1 nM.

Another assay addresses T2, human SNP variant (S309L) of GPR119 (Homo sapiens, UniProt Q8TDV5, S309L).
T2 construct: expressed in transfected cells; host or cells: HEK293 Flp-In (Invitrogen)
T2 sequence (Q8TDV5 1-335 S309L): T1 sequence (Q8TDV5 1-335) with S309L
Description: GPR119 signaling, cAMP homogenous time resolved fluorescence (HTRF) assay. Format: cell-based. The conditions noted are these: HEK293 Flp-In cells stably transfected with human GPR119 (S309L), HTRF kit. The source says:
Measurement of GPR119 Signaling Using a Cyclic AMP (cAMP) Homogenous Time Resolved Fluorescence (HTRF) Assay
Chinese hamster ovary (CHO) cell lines stably transfected with the permissive guanine nucleotide binding protein alpha 15 (Gals) and murine GPR119 were maintained in DMEM media containing FBS, penicillin-streptomycin, puromycin, and G418 (geneticin). Alternatively, human embryonic kidney (HEK)293 Flp-In cells (Invitrogen, Carlsbad, Calif.) were stably transfected with a human SNP variant (S309L) of GPR119 and maintained in DMEM media containing FBS, penicillin-streptomycin, and hygromycin. Agonist activation of the GPR119 receptor was measured in receptor transfected cells described above, treated with compounds of this invention, using a commercial homogenous time resolved fluorescence (HTRF) kit for measurement of cAMP (CisBio, Bedford, Mass.). The assay was performed in 96-well half-volume plates (murine) or 384-well plates (human) following the manufacturers instructions. Briefly, suspended cells were incubated with a dose titration of test compound at RT for 60 min, lysed, and incubated with HTRF reagents for an additional 60 min. The plate was read using an Envision multilabel reader (Perkin Elmer) adjusted to read time resolved fluorescence and the cAMP concentrations were extrapolated from a cAMP calibration curve. […] The concentration of test compound required to stimulate a half-maximal response (EC50), and efficacy as compared to an internal agonist control, was determined from a sigmoidal 4-parameter curve fit of the resulting plot of normalized activity versus compound concentration.
As to `CCc1cnc(N2CCC([C@H]3C[C@@H]3COCc3ccc(S(C)(=O)=O)cc3)CC2)nc1` [Example 10, 5-ethyl-2-(4-((1R,2S)-2-(((4-(methylsulfonyl)benzyl)oxy)methyl)cyclopropyl)piperidin-1-yl)pyrimidine], the EC50 is 1.9 nM.
In turn, `CS(=O)(=O)c1ccc(COC[C@H]2C[C@@H]2C2CCN(C(=O)OC3CC3)CC2)cc1` [Example 16, cyclopropyl 4-((1R,2S)-2-(((4-(methylsulfonyl)benzyl)oxy)methyl)cyclopropyl)piperidine-1-carboxylate] displayed an EC50 of 5.7 nM.
Compound `CS(=O)(=O)c1ccc(OCC[C@@H]2C[C@H]2C2CCN(c3nc(C4CCC4)no3)CC2)nc1` [Example 114, 3-cyclobutyl-5-(4-((1S,2S)-2-(2-((5-(methylsulfonyl)pyridin-2-yl)oxy)ethyl)cyclopropyl)piperidin-1-yl)-1,2,4-oxadiazole] displayed a 50% effective concentration (EC50) of 4.8 nM.
The same measure, in the same setting: next, `CS(=O)(=O)c1ccc(OCC[C@@]2(C#N)C[C@@H]2C2CCN(c3ncc(Cl)cn3)CC2)cc1` [Example 127, (1S,2R)-2-(1-(5-chloropyrimidin-2-yl)piperidin-4-yl)-1-(2-(4-(methylsulfonyl)phenoxy)ethyl)cyclopropanecarbonitrile]: 3 nM; `CS(=O)(=O)c1ccc(COC[C@H]2C[C@@H]2C2CCN(c3ncc(Cl)cn3)CC2)nc1` [Example 1, 5-chloro-2-(4-((1R,2S)-2-(((5-(methylsulfonyl)pyridin-2-yl)methoxy)methyl)cyclopropyl)piperidin-1-yl)pyrimidine]: 3.8 nM; `CCCc1noc(N2CCC([C@@H]3C[C@H]3CCOc3ccc(S(C)(=O)=O)cn3)CC2)n1` [Example 113, 5-(4-((1S,2S)-2-(2-((5-(methylsulfonyl)pyridin-2-yl)oxy)ethyl)cyclopropyl)piperidin-1-yl)-3-propyl-1,2,4-oxadiazole]: 7.9 nM.
For `CCS(=O)(=O)c1ccc(COC[C@H]2C[C@@H]2C2CCN(c3ncc(C)cn3)CC2)cc1` [Example 7, 2-(4-((1R,2S)-2-(((4-(ethylsulfonyl)benzyl)oxy)methyl)cyclopropyl)piperidin-1-yl)-5-methylpyrimidine], the response was half-maximal at 5.8 nM (EC50).

These data come from patent US20150274664A1 (MERCK SHARP & DOHME CORP., priority 2012, published 2015).
